Holding throughout (assay type): ADME, organism-based
Settings in all cases: in vivo

The subject of data set [1] is Rattus norvegicus. Kind of data set: Clearance in iv dosed rat.
The subject of data set [2] is Rattus norvegicus. In words: Half life in iv dosed rat.
The test system of data set [3] is Rattus norvegicus. In words: Volume of distribution at steady state in iv dosed rat.
Data set [4] can be described thus: Cmax in iv dosed rat. Also noted: route intravenous.
The nature of data set [5]: AUC in iv dosed rat.
A short description of data set [6]: Cmax in po dosed rat. Also noted: route oral.
The nature of data set [7]: AUC in po dosed rat.
A short description of data set [8]: Tmax in po dosed rat.
Data set [9] is described as follows: Half life in po dosed rat.
Data set [10] can be described thus: Oral bioavailability in rat.

Structures are written as SMILES.

As for `CS(=O)(=O)Nc1cccc(CC(=O)Nc2cc(-c3ccnc(F)c3)cs2)c1`, in the data set with Rattus norvegicus [1], the clearance (commonly the volume of plasma or blood freed of the substance per unit of time) is 3.45 mL/min/kg. Besides, in the data set on Rattus norvegicus [2], the t1/2 turned out to be 2.6 h. Moreover, the volume of distribution (Vdss) (in general, a proportionality between amount in the body and measured concentration, not a real space) in the data set with Rattus norvegicus [3] amounted to 0.675 L/kg. Moreover, the Cmax (as a rule, the peak of the concentration-time curve) in data set [4] was found to be 2920 ng/mL; in [6], 3200 ng/mL. Moreover, the area under the curve (AUC) (as a rule, the area under the concentration-time curve, a measure of exposure) in [5] was 4310 ng·h/mL; in data set [7] it was 32600 ng·h/mL. In addition, in data set [8], the time of peak concentration (Tmax) (in general, the time at which the peak concentration occurs) was determined as 3 h. In [9], the half-life – broadly, the time needed for the level to fall by half in the phase considered – is 3.4 h. The bioavailability (commonly the share of a dose that reaches the circulation, judged against a reference dose that is usually intravenous) in data set [10] is 69%.

These data come from ChEMBL document CHEMBL3580640, “Design, Synthesis, and Structure-Activity Relationships of Pyridine-Based Rho Kinase (ROCK) Inhibitors” (J Med Chem, 2015).
